From patent US20250248936A1 (priority 2022, published 2025)
“And” between values parts separate entries of the source, which are not always exact repeats. Equal values may be shown once.

What was measured:
Type in all cases: in vivo, female turkeys
H. meleagridis [1] = test: Controlling Histomoniasis in turkeys (QSC HD 1500 ppm); settings: MED 30 mg/kg bird/day
Experimental: A total of 160 3-week-old female turkeys were randomly grouped into 10 pens. The groups were: control (−) CON, control (+) POS, metronidazole (MED), two groups treated with QSC at 1500 ppm (HD greater dose than in the previous trial). The CON group was not challenged or treated with any product; POS control was only inoculated with a H. meleagridis suspension, and the MED group was inoculated with the same dose and treated with metronidazole, 30 mg/kg bird/day. […] Table 1208 summarizes bird distribution according to treatments, as well as the appropriate product dosage.
(§1) The treatments were started as of 3 weeks of age. The H. meleagridis challenge suspension was 100000 cell/mL, approximately, and was inoculated at 4 weeks of age, via cloacal route. Female turkey mortality rate was recorded throughout the trial, and lesions were measured by using a previously standardized lesion scoring at 8 weeks of age.

H. meleagridis [2] = test: Controlling Histomoniasis in turkeys (QSC, QS15 750 ppm); settings: MED 30 mg/kg bird/day, QSC 750 ppm
Experimental: A total of 200 3-week-old female turkeys were randomly grouped into 9 pens. The groups were: control (−) (CON), control (+) (POS), metronidazole (MED), two 750 PPM QSC-treated groups, and two groups treated with 750 PPM QS15-treated groups. The CON group was not challenged or treated with any product, POS was only inoculated a H. meleagridis suspension, and the MED group was inoculated with the same dose and treated with 30 mg/kg metronidazole per bird/day. The CON group was comprised of 16 young female turkeys, while the remainder comprised 23 each. Table 17 summarizes the bird distribution according to treatment, as well as the appropriate product dosage.
The treatments were started at 3 weeks of age. The H. meleagridis challenge suspension had approximately 100000 cells/mL and was inoculated at 4 weeks of […] age. Weight was measured at 3, 6 and 8 weeks of age. Feed intake was estimated at 6 and 8 weeks of age. The young female turkey mortality rate was recorded throughout the trial, and lesions were measured by using a previously standardized lesion scoring at 8 weeks of age.

H. meleagridis [3] = test: Controlling Histomoniasis in turkeys (BQ batches 3250 ppm); settings: MED 30 mg/kg bird/day; BQ-1, BQ-2, BQ-3 3250 ppm
Experimental: A total of 200 3-week-old young female turkeys were randomly grouped in 10 pens. The groups were: control (−) CON, control (+) POS, MED (metronidazole), 3 groups treated with BQ. BQ is a quillay wood-based additive where three different batches were evaluated with (2.5-5.5%) saponins.
as §1, with “suspension contained” for “suspension was”, “100000 cell/ml,” for “100000 cell/mL,”, “route. The female” for “route. Female”

H. meleagridis [4] = test: Controlling Histomoniasis in turkeys (QSC and QHS); settings: MED 30 mg/kg bird/day; QHS 1500 ppm; QSC 750 ppm
Experimental: A total of 160 3-week-old female turkeys were randomly grouped into 10 pens. The groups were: control (−) CON, control (+) POS, MED (metronidazole), and two different treatments, (QSC and QHS's active content under treatment) is set). Control group (−) was not challenged or treated with any product, control (+) was only inoculated with a H. meleagridis suspension, and the MED group was inoculated with the same dose and treated with metronidazole, 30 mg/kg bird/day. […] Table 22 summarizes bird distribution according to treatments, as well as the appropriate product dosage.
as §1, with “suspension contained” for “suspension was”, “100000 cells/mL,” for “100000 cell/mL,”, “inoculated as of” for “inoculated at”, “age,” for “age, via”, “route. The female” for “route. Female”

For `Cc1ncc([N+](=O)[O-])n1CCO` [MED, metronidazole], the Cecum lesion score (H. meleagridis [1]) was 1.3b, the Liver lesion score (H. meleagridis [1]) was 0.28ab and the “Mortality (%)” value (H. meleagridis [1]) was 10% and 10a %. For the same molecule, the Cecum lesion score (H. meleagridis [2]) was 0.2a, the Liver lesion score (H. meleagridis [2]) was 0.0a and the “Mortality (%)” value (H. meleagridis [2]) was 2% and 2a %. For the same molecule, the Cecum lesion score (H. meleagridis [3]) was 0.85a, the Liver lesion score (H. meleagridis [3]) was 0.5ab and the “Mortality (%)” value (H. meleagridis [3]) was 10% and 10.00ab %. The Cecum lesion score (H. meleagridis [4]) was 1.5c, the Liver lesion score (H. meleagridis [4]) was 0.3a and the “Mortality (%)” value (H. meleagridis [4]) was 25% and 25.00ab %.
